# Experimental data published in patent US8298543B2, “Identification and application of antibiotic synergy” (priority 2005, dated 2012).
# How the values were obtained:
# [1] = tested on: S. aureus engineered with murB antisense; type: cell-based, Staphylococcus aureus
# [2] = tested on: B. anthracis murB-2 antisense strain
Structure (SMILES),change of potency / sensitivity in presence of inducer [1],IC50 shift (ratio of EC50 with and without xylose) [2]
CO[C@@]1(NC(=O)Cc2cccs2)C(=O)N2C(C(=O)O)=C(COC(N)=O)CS[C@@H]21 [cefoxitin],increase in potency,–
Cc1onc(-c2c(Cl)cccc2Cl)c1C(=O)N[C@@H]1C(=O)N2[C@@H]1SC(C)(C)[C@@H]2C(=O)O [dicloxacillin],increase in potency,–
CO/N=C(\C(=O)N[C@@H]1C(=O)N2C(C(=O)O)=C(COC(C)=O)CS[C@H]12)c1csc(N)n1 [cefotaxime],–,343
